From patent US11331364B2, “Use for JNK inhibitor molecules for treatment of various diseases” (Xigen Inflammation Ltd., priority 2014, dated 2022)
Square brackets hold non-standard residues; d marks the D form. Ends that are not written are not given here.

Test system: Hela cells
Experiment: Internalization of transporter constructs, 24 hours, fluorescence of cell extracts
Format: cell-based
Conditions: FIG. 6; Y in position 2
Description: The transporter sequences analyzed correspond to SEQ ID NOs: 52-94 plus SEQ ID NOs: 45, 47, 46, 43 and 99 (FIG. 6A) and SEQ ID NOs: 100-147 (FIG. 6B). […] Hela cells were incubated 24 hours in 96 well plate with […] of the respective transporters. The cells were then washed twice with an acidic buffer (0.2M Glycin, 0.15M NaCl, pH 3.0) and twice with PBS. Cells were broken by the addition of RIPA lysis buffer. The relative amount of internalized peptide was then determined by reading the fluorescence intensity (Fusion Alpha plate reader; PerkinElmer) of each extract followed by background subtraction.
Hela cells were incubated 24 hours in 96 well plate with […] of the r3-L-TAT-derived transporters. The cells were then washed twice with an acidic buffer (0.2M Glycin, 0.15M NaCl, pH 3.0) and twice with PBS. Cells were broken by the addition of RIPA lysis buffer. The relative amount of internalized peptide was then determined by reading the fluorescence intensity (Fusion Alpha plate reader; PerkinElmer) of each extract followed by background subtraction

rYKRrQRRr ([dR]YKR[dR]QRR[dR]) [SEQ ID NO: 142]
transporter activity: highest transporter activity
